The data set in a line: in vitro. The following applies: human, hela cells, % viability.

This is an account of results in publication PMC12040169 (PLOS Biology, 2025).

As usually defined, the viability is a read-out of living cells in per cent, often relative to untreated cells.

`O=S(=O)(Nc1cc(OC2CCCNC2)c2occc2c1)c1cc(F)ccc1F` (stereo not drawn) [CBK073996C]: the viability at 28.5 h, 10 µM is 105%. Then `CC(CN(C)C(=O)c1cn[nH]c1C1CCNC1)Oc1ccc(Cl)c(Cl)c1` (stereo not drawn) [CBK304786], with 91.1%; and `CCOC(=O)CSC/C(=N/Nc1ccccc1)c1cccs1` [CBK006956], with 102%; and `COc1ccc2cc(COC(=O)c3ccc([S+](C)[O-])cc3)c(Cl)nc2c1` (stereo not drawn) [CBK298267], with 99.5%. Then `O=C(/C=C/c1ccc(Cl)cc1Cl)Nc1sc2c(c1C(=O)NCc1cccnc1)CCCC2` [CBK265497], with 99.3%; and `Cc1cc(C)cc(NC(=O)CC2Sc3ccccc3NC2=O)c1` (stereo not drawn) [CBK266384], with 94%. Then `CN(C)S(=O)(=O)c1ccc(C(=O)C2=C(O)C(=O)N(Cc3cccnc3)C2c2ccccc2)cc1` (stereo not drawn) [CBK264667], with 100%.

Consider `CC(C)n1c(=O)n(CC(=O)NCCc2ccccc2)c2cccnc21` [CBK283701], for which the viability at 28.5 h, 10 µM came to 94.8%. As for `CCN(CC)c1ccc(NC(=O)COc2ccccc2)cc1` [CBK096048], the viability at 28.5 h, 10 µM worked out at 91.9%.

`NCCc1c[nH]c2ccc(OCC(=O)O)cc12` [CBK265853C]: the viability at 28.5 h, 10 µM was 86.2%. Then `Cc1cccn2cc(CCNC(=O)CN(C)C3CCSC3)nc12` (stereo not drawn) [CBK304027], with 84.6%; and `Cc1noc(C)c1C(=O)N1CCCCCC1c1c(Cl)cnn1C` (stereo not drawn) [CBK284918], with 93.3%; and `O=C1NC2(CCCCC2)C(=O)N1CCS(=O)(=O)Oc1ccc(Br)cc1` [CBK261303], with 93.5%. Next, `COc1ccc(S(=O)(=O)Nc2ccc(S(=O)(=O)Nc3nccs3)cc2)cc1C` [CBK266011]: 101%; `COc1ccc(CCCC(=O)Nc2cc3ccccc3c(N3CCNCC3)n2)cc1OC` [CBK028417T]: 90.3%; `N=c1n(CCN2CCCCC2)c2ccccc2n1CC(=O)c1cccs1` [CBK278244B]: 85%. For the molecule `O=C(O)CCCN1C(=O)/C(=C/c2c[nH]c3ccccc23)SC1=S` [CBK262580], the viability at 28.5 h, 10 µM was determined as 119%. Regarding `CC(C)N(C(=O)c1ccccc1-c1cnc2nncn2c1)C(C)C` [CBK306701], the viability at 28.5 h, 10 µM came out at 99.8%.

In the case of `Cc1ccc(OCC(=O)N2CCN(S(=O)(=O)c3ccc([N+](=O)[O-])cc3)CC2)cc1` [CBK264267], the viability at 28.5 h, 10 µM came to 103%. Then `Cc1ccc(-c2cc3cccnc3n2CCC(=O)NC2CC2)cn1` [CBK284964], with 97.4%; and `CC(C)Nc1nc2ccccc2nc1OCCC#N` [CBK115735], with 103%; and `Cc1noc(C)c1CC(=O)NC(CN1CCCCC1)c1ccccc1` (stereo not drawn) [CBK281507], with 89.1%.

In the case of `COc1ccc(-n2ncc(-c3cccc(C(F)(F)F)c3)n2)cn1` [CBK112678], the viability at 28.5 h, 10 µM amounted to 95.8%. Then `COc1ccc(-n2cc(-c3ccccn3)nn2)cc1OC` [CBK113133], with 103%; and `COc1ccc2[nH]c3c(c2c1)CCN(S(C)(=O)=O)C31CCN(CCOc2ccccc2)C1` (stereo not drawn) [CBK063187T], with 92.9%; and `CC(C)c1ccc(N2C(=O)N[C@@H]3CCN(C(=O)c4cccs4)[C@@H]3C2=O)cc1` [CBK289286], with 90.7%. Next, `O=C(O)c1cccc2c1C(=O)N(Cc1cccs1)C2` [CBK291246]: 95.3%; `O=C(Cc1cccnc1)N1CCC(Cc2ccccc2)CC1` [CBK200183]: 97%; `N#CCc1ccc(Nc2cc(-c3cccc(N)c3)ncn2)cc1` [CBK091187]: 96.7%. In the case of `O=C1CCCCCN1CP(=O)(O)CCc1ccccc1` [CBK262313], the viability at 28.5 h, 10 µM was determined as 99.7%. As to `Cc1c(NC(=S)NCCCN2CCOCC2)c(=O)n(-c2ccccc2)n1C` [CBK008032], the viability at 28.5 h, 10 µM came out at 90.7%. Turning to `COc1nccnc1-c1ccc(C)c(C)c1` [CBK106853], the viability at 28.5 h, 10 µM was 88.7%. Then `COCCCn1c(=O)[nH]c2ncc(-c3cccc(C(=O)NCCO)c3)nc21` [CBK065042], with 118%; and `COc1ccccc1NC(=O)COc1ccc(C)cc1[N+](=O)[O-]` [CBK269724], with 81.6%; and `O=C(c1ccc(COc2ccc(I)cc2)cc1)N1CCCCCC1` [CBK058852], with 83.4%. For the molecule `O=C1NCC(C2CCN(Cc3ccccc3)CC2)Oc2ccccc21` (stereo not drawn) [CBK282314], the viability at 28.5 h, 10 µM turned out to be 85.9%. Then `CC(C)CC(NC(=O)c1ccco1)c1nc2cccnc2n1C` (stereo not drawn) [CBK283827], with 88.8%; and `Cc1cc(C(=O)N2CCC(F)CC2)n[nH]1` [CBK200277], with 109%.

Consider `C[C@@H]1CN(C(=O)c2cscn2)C[C@H](C)O1` [CBK200371], for which the viability at 28.5 h, 10 µM stood at 90%. Then `CC(=O)NC1CCN(CC2(c3ccccc3F)CCCC2)CC1` [CBK282591], with 86.7%. For the molecule `CC(C)(C)c1cn2c3ccccc3nc2n1CCN1CCOCC1` [CBK278252C], the viability at 28.5 h, 10 µM is 103%. In the case of `O=C(CC1CC2CCC1C2)N1CCC(O)(c2ccccn2)CC1` (stereo not drawn) [CBK283833], the viability at 28.5 h, 10 µM came out at 92.7%. As to `CCCC(=O)Nc1ccccc1NC(=O)c1ccc2c(c1)OCO2` [CBK265841], the viability at 28.5 h, 10 µM came out at 103%.

Consider `c1cncc(COc2nccnc2OC2CCN(CCOc3cccnc3)CC2)c1` [CBK083181], for which the viability at 28.5 h, 10 µM amounted to 92.1%. `NC(=O)c1cccc(NC(=O)/C=C/C(=O)O)c1` [CBK261678]: the viability at 28.5 h, 10 µM was determined as 96.8%. With `CC(=O)N1CC[C@H](c2nc3ccc(C#N)cc3[nH]2)C1` [CBK289378], the viability at 28.5 h, 10 µM was 108%. Then `CCOC(=O)CN1CCC(Oc2nccnc2OCc2cc(C)on2)CC1` [CBK082960T], with 105%. Then `CCCCNC(=O)OC1CCN(CCc2ccccc2)CC1` [CBK022839C], with 89.2%; and `CCCN(C)Cc1ccc(-c2cn(CC(=O)NCc3ccc4c(c3)OC(F)(F)O4)nn2)cc1` [CBK166361], with 101%. Then `Cn1cc(-c2nc(C(=O)NCc3ccnc(N4CCCC4)c3)cs2)cn1` [CBK305666], with 92.9%; and `CC(=O)N[C@H]1CO[C@H]2[C@@H]1OC[C@H]2OC(=O)Nc1ccc(Oc2ccccc2)cc1` [CBK289470], with 113%.

Take `C=CCN(C)C(=O)[C@H]1C[C@@H](O)[C@H](O)[C@@H]2N=C(Nc3cc(C)cc(C)c3)S[C@@H]21` [CBK288948]: the viability at 28.5 h, 10 µM was 94.2%.

`Cc1cccc(CC(=O)N2CCC(Cc3ccc(-c4cccc(C)c4)cc3)(C(N)=O)CC2)c1` [CBK285798]: the viability at 28.5 h, 10 µM worked out at 104%. Next, `O=C1CNC(=O)C2(C/C=C/C[C@H]3COCC[C@H]3N1)CCN(Cc1ccc(F)cn1)CC2` [CBK292160]: 110%. Next, `CCc1cc2c(=O)c(-c3nc(C)cs3)c(C)oc2cc1OCc1ccc([N+](=O)[O-])cc1` [CBK268305]: 101%; `O=C(O)CCCCC1SCC2NC(=O)NC21` (stereo not drawn) [CBK012026G]: 105%; `COc1cccc(CNc2cccc(C(=O)O)c2)c1OCc1ccc(Cl)cc1Cl` [CBK074424]: 91.3%.
